Data published in ChEMBL document CHEMBL3872213, “Synthesis and biological activity of furoxan derivatives against Mycobacterium tuberculosis” (Eur J Med Chem, 2016).
Converted amounts (≈) assume the structure as drawn.

Tests used:
[1] = Induction of nitric oxide production assessed as nitrite level at 10^-4M measured after 1 hr in presence 1:50 molar excess of L-cysteine by Griess reagent based spectrophotometer relative to control; format: physicochemical; settings: 100 µM
[2] = n-octanol-water partition coefficient, log P of the compound by HPLC method; format: physicochemical
[3] = test system: Mycobacterium tuberculosis; test: microbe, parasite or virus in culture; settings: H37Rv ATCC 27294, 168 h
Description: Antitubercular activity against Mycobacterium tuberculosis H37Rv ATCC 27294 after 7 days by REMA method

[4] = test system: Mycobacterium tuberculosis; format: functional; settings: H37Rv ATCC 27294, 144 h
[5] = test system: Mycobacterium tuberculosis; format: functional; settings: H37Rv ATCC 27294, 168 h
[6] = test system: Mycobacterium tuberculosis; format: functional; settings: H37Rv
[7] = test system: Mycobacterium tuberculosis; format: functional; settings: H37Rv ATCC 27294, 168 h; remark: listed apart in the source
[8] = Cytotoxicity against human MRC5 cells measured after 24 hrs by resazurin based fluorescence method; format: toxicity, cell-based
[9] = Cytotoxicity against mouse J774A.1 cells measured after 24 hrs by resazurin based fluorescence method; format: toxicity, J774.A1
in vitro [10] = settings: mouse, J774A.1 cells
Description: Selectivity index, ratio of IC50 for mouse J774A.1 cells to MIC90 for Mycobacterium tuberculosis H37Rv ATCC 27294

in vitro [11] = settings: human, MRC5 cells
Description: Selectivity index, ratio of IC50 for human MRC5 cells to MIC90 for Mycobacterium tuberculosis H37Rv ATCC 27294

[12] = Chemical stability in pH 1 PBS buffer assessed as compound degradation after 1 hr by HPLC-MS/MS method; format: physicochemical; settings: read-out: Drug degradation
[13] = Chemical stability in pH 9 PBS buffer assessed as compound degradation after 1 hr by HPLC-MS/MS method; format: physicochemical; settings: read-out: Drug degradation
[14] = Chemical stability in pH 5 PBS buffer after 6 hrs by HPLC-MS/MS method; format: physicochemical; settings: pH 5, 6 h
[15] = Chemical stability in pH 7.4 PBS buffer assessed as compound degradation after 6 hrs by HPLC-MS/MS method; format: physicochemical; settings: read-out: Drug degradation
[16] = Chemical stability in pH 5 PBS buffer assessed as compound degradation after 24 hrs by HPLC-MS/MS method; format: physicochemical; settings: read-out: Drug degradation
[17] = Chemical stability in pH 7.4 PBS buffer assessed as compound degradation after 24 hrs by HPLC-MS/MS method; format: physicochemical; settings: read-out: Drug degradation

Row | SMILES | Activity [1] | MIC90 [3] [µM] | other results
1 | Cc1c(Oc2cccc(/C=N/NC(=O)c3ccncc3)c2)no[n+]1[O-] | 0.16% | > 62 | logP [2]: 1.3
2 | O=C(N/N=C/c1cccc(Oc2no[n+]([O-])c2-c2ccccc2)c1)c1ccncc1 | 6.87% | > 62 | logP [2]: 2.9
3 | CC(C)COC(=O)c1cnccn1 |  |  | MIC90 [4]: 2 µM (≈ 0.36 µg/mL)
4 | CNC(=S)N/N=C(\C)c1ccccn1 |  |  | MIC90 [5]: 7.8 µM (≈ 1.62 µg/mL)
5 | O=C(CC(=O)C(F)(F)F)c1ccccc1 |  | 9.61 (≈ 2.08 µg/mL) | 
6 | COc1cc(/C=N/c2ccc(O)cc2)cc(OC)c1OC |  | 15.6 (≈ 4.48 µg/mL) | 
7 | CCCCN(CCCC)C(=S)NC(=O)c1ccccc1 |  | 25 (≈ 7.31 µg/mL) | 
8 | NC(=O)c1cnccn1 [PYRAZINAMIDE] |  |  | MIC90 [6]: > 48 µM
9 | O=C(N/N=C/c1cccc(Oc2no[n+]([O-])c2S(=O)(=O)c2ccccc2)c1)c1ccncc1 | 38.5% | 1.61 (≈ 0.749 µg/mL) | MIC90 [7]: > 62 µM; IC50 at 24 h [8]: 30.1 µM; IC50 at 24 h [9]: 4.3 µM; logP [2]: 2.3; selectivity ratio (in vitro [10]): 3; selectivity ratio (in vitro [11]): 14.1
10 | Cc1c(Oc2ccc(/C=N/NC(=O)c3ccncc3)cc2)no[n+]1[O-] | 2.02% | > 62 | logP [2]: 1.3
11 | O=Cc1ccccc1Oc1no[n+]([O-])c1S(=O)(=O)c1ccccc1 | 21.2% | 20.2 (≈ 7.01 µg/mL) | IC50 at 24 h [9]: 7.4 µM; selectivity ratio (in vitro [10]): 0.4
12 | O=[N+]([O-])O[C@H]1CO[C@H]2[C@@H]1OC[C@H]2O[N+](=O)[O-] [ISOSORBIDE DINITRATE] | 7.17 to 7.5 mol/mol |  | 
13 | O=Cc1ccc(Oc2no[n+]([O-])c2-c2ccccc2)cc1 | 19.4% | > 62 | 
14 | CO[C@H]1/C=C/O[C@@]2(C)Oc3c(C)c(O)c4c(O)c(c(/C=N/N5CCN(C)CC5)c(O)c4c3C2=O)NC(=O)/C(C)=C\C=C\[C@H](C)[C@H](O)[C@@H](C)[C@@H](O)[C@@H](C)[C@H](OC(C)=O)[C@@H]1C [RIFAMPIN] | 0% | 0.5 (≈ 0.411 µg/mL) | 
15 | NNC(=O)c1ccncc1 [ISONIAZID] | 0% | 0.11 (≈ 0.0151 µg/mL) | 
16 | Cc1c(Oc2cccc(C=O)c2)no[n+]1[O-] | 0% | > 62 | 
17 | Cc1c(Oc2ccccc2/C=N/NC(=O)c2ccncc2)no[n+]1[O-] | 0.35% | > 62 | logP [2]: 1.4
18 | CCN(CC)C(=S)NC(=O)c1ccco1 |  | 25 (≈ 5.66 µg/mL) | 
19 | O=Cc1cccc(Oc2no[n+]([O-])c2S(=O)(=O)c2ccccc2)c1 | 27.1% | 20.9 (≈ 7.23 µg/mL) | IC50 at 24 h [9]: 5.6 µM; selectivity ratio (in vitro [10]): 2
20 | O=C(N/N=C/c1cccc(O)c1)c1ccncc1 |  | 104 (≈ 25 µg/mL) | 
21 | c1csc(-c2nc3ccccc3s2)c1 |  | 50 (≈ 10.9 µg/mL) | 
22 | COc1ccc(/C=N/CC/N=C/c2ccc(OC)cc2)cc1 |  | 25 (≈ 7.41 µg/mL) | 
23 | O=Cc1ccc(Oc2no[n+]([O-])c2S(=O)(=O)c2ccccc2)cc1 | 24.4% | 26 (≈ 9.01 µg/mL) | IC50 at 24 h [9]: 2.2 µM; selectivity ratio (in vitro [10]): 0.1

Row | SMILES | Activity [1] | MIC90 [3] [µM] | other results
24 | NC(=O)c1c(CBr)no[n+]1[O-] |  | 3 (≈ 0.666 µg/mL) | 
25 | C/C(=N\NC(N)=S)c1ccccn1 |  |  | MIC90 [5]: 31.3 µM (≈ 6.08 µg/mL)
26 | CN(C)C(=S)NC(=O)c1ccccc1 |  | 25 (≈ 5.21 µg/mL) | 
27 | O=Cc1cccc(Oc2no[n+]([O-])c2-c2ccccc2)c1 | 23.1% | > 62 | 
28 | O=S(=O)(c1ccccc1)c1no[n+]([O-])c1-c1ccccc1 |  | 82 (≈ 24.8 µg/mL) | 
29 | O=C(CC(=O)C(F)(F)F)c1cccs1 |  | 10.9 (≈ 2.42 µg/mL) | 
30 | N[C@@H]1CONC1=O [CYCLOSERINE] |  |  | MIC90 [6]: 245 µM (≈ 25 µg/mL)
31 | Cc1c(Oc2ccc(C=O)cc2)no[n+]1[O-] | 0% | > 62 | 
32 | NC[C@H]1O[C@H](O[C@H]2[C@H](O)[C@@H](O[C@H]3O[C@H](CO)[C@@H](O)[C@H](N)[C@H]3O)[C@H](N)C[C@@H]2N)[C@H](O)[C@@H](O)[C@@H]1O [KANAMYCIN] |  |  | MIC90 [6]: 3.4 µM (≈ 1.65 µg/mL)
33 | O=C(N/N=C/c1ccccc1Oc1no[n+]([O-])c1-c1ccccc1)c1ccncc1 | 11.2% | > 62 | logP [2]: 2.7
34 | O=C(N/N=C/c1ccc(O)cc1)c1ccncc1 |  | 1.04 (≈ 0.251 µg/mL) | MIC90 [6]: 1 µM (≈ 0.241 µg/mL)
35 | C/C(=N\NC(=S)Nc1ccccc1)c1ccccn1 |  |  | MIC90 [5]: 15.6 µM (≈ 4.22 µg/mL)
36 | Cc1c(Oc2ccccc2C=O)no[n+]1[O-] | 0% | > 62 | 
37 | CN(C)c1ccc(/C=N/c2ccc(O)cc2)cc1 |  | 15.6 (≈ 3.75 µg/mL) | 
38 | O=C(N/N=C/c1ccccc1O)c1ccncc1 [SALINAZID] |  | 12.4 (≈ 3 µg/mL) | 
39 | O=Cc1ccccc1Oc1no[n+]([O-])c1-c1ccccc1 | 25.1% | > 62 | 
40 | O=C(NC(=S)N(c1ccccc1)c1ccccc1)c1ccccc1 |  | 25 (≈ 8.31 µg/mL) | 
41 | O=S(=O)(c1ccccc1)c1no[n+]([O-])c1S(=O)(=O)c1ccccc1 |  | 6.2 (≈ 2.27 µg/mL) | 
42 | O=[N+]([O-])c1ccc(/C=N/c2ccc(O)cc2)cc1 |  | 15.6 (≈ 3.78 µg/mL) | 
43 | O=C(N/N=C/c1ccccc1Oc1no[n+]([O-])c1S(=O)(=O)c1ccccc1)c1ccncc1 | 44.2% | 8.6 (≈ 4 µg/mL) | MIC90 [7]: > 62 µM; IC50 at 24 h [8]: 34.4 µM; IC50 at 24 h [9]: 10.8 µM; logP [2]: 2.2; selectivity ratio (in vitro [10]): 1.25; selectivity ratio (in vitro [11]): 3.78
44 | O=C(N/N=C/c1ccc(Oc2no[n+]([O-])c2-c2ccccc2)cc1)c1ccncc1 | 7.33% | 11.8 (≈ 4.74 µg/mL) | MIC90 [7]: > 62 µM; IC50 at 24 h [8]: 623 µM; IC50 at 24 h [9]: 409 µM; logP [2]: 2.9; selectivity ratio (in vitro [10]): 34.8; selectivity ratio (in vitro [11]): 52.7
45 | O=C(N/N=C/c1ccc(Oc2no[n+]([O-])c2S(=O)(=O)c2ccccc2)cc1)c1ccncc1 | 43.5% | 1.03 (≈ 0.479 µg/mL) | MIC90 [7]: > 62 µM; IC50 at 24 h [8]: 43 µM; IC50 at 24 h [9]: 10.8 µM; logP [2]: 2.1; degraded at 1 h [12]: 90%; degraded at 1 h [13]: 50%; Stability [14]: Stable; degraded at 6 h [15]: 15%; degraded at 24 h [16]: 20%; degraded at 24 h [17]: 20%; selectivity ratio (in vitro [10]): 12; selectivity ratio (in vitro [11]): 20.3
